Laboratory results from patent US12116333B1, “3,3'-(hydrazine-1,2-diyl)bis(1-(naphthalen-2-yloxy)propan-2-ol) as an ecofriendly insecticidal agent against spodoptera littoralis (boisd.)” (KING FAISAL UNIVERSITY, priority 2023, dated 2024).
Values after ≈ are worked out from the molar mass of the structure shown.

Tested on: Spodoptera littoralis
Assay: Insecticidal bioassay screening (castor leaf dip) against 2nd and 4th instar larvae
Type: in vivo
Details: for Toxic ratio: 72 h, fenoxycarb's LC50/compound's LC50 ×100
Description: Five concentrations (200, 100, 50, 25, 12.5 ppm) were designed for this synthetic compound and the reference fenoxycarb compound as the dynamic ingredients based on ppm via diluting the commercial formulation.
In this experiment, castor leaves were immersed in each of the previously prepared concentrations of the components for 10 seconds and then left to dry for 60 minutes.
Larvae of the second and fourth instars of each checked strain were prepared with treated leaves in gauze-covered glass containers for 72 hrs. An untreated control was made in which leaves were dipped in triton x-100 and distilled water only. Then, the preserved leaves were removed & fresh, untreated leaves were provided for 72 hours. Three replicates (10 larvae each) were checked for each concentration. Daily inspection was carried out for all treatments and mortality percentages were recorded 3 days (72 hours) after treatment. The average mortality percentage was corrected employing Abbott's formula. The corrected mortality rate for each of the previously synthesized compounds was statistically calculated according to Finney (1970). Through this rate, the corresponding concentration test lines (LDP lines) were assessed. Fifty and ninety percent mortality was determined, and the regression values for the checked products were previously evaluated.

CCOC(=O)NCCOc1ccc(Oc2ccccc2)cc1 [Fenoxycarb]
LC50 (2nd instar larvae of S. littoralis, after 72 h of treatment): 2.73 ppm | Toxic ratio (2nd instar larvae): 100 | LC50 (4th instar larvae of S. littoralis, after 72 h of treatment): 43.231 ppm | Toxic ratio (4th instar larvae): 1 | LC50 (Spodoptera littoralis, foliar): 2.73 µg/mL (≈ 9.06 µM)
